# Assay results reported in PMC9186491, “Novel Small Molecule Tyrosine Kinase 2 Pseudokinase Ligands Block Cytokine-Induced TYK2-Mediated Signaling Pathways” (Frontiers in Immunology, 2022).
# pIC50: −log10 of the molar value.
# Assays:
# [1] = test system: IFNα-induced CXCL10 production in human whole blood; assay: IFNα-induced CXCL10 production in human whole blood; type: cell-based; details: human whole blood, IFNα 16 hours; read-out: TYK2-associated IFNα-induced-CXCL10 Production in Human Whole Blood: IC50
# Description: Human whole blood [drawn with Ethylenediaminetetraacetic acid (EDTA) as anti-coagulant] was obtained from Zen-Bio Inc. (Durham, NC). […] The plasma was collected for detection of C-X-C motif chemokine 10 (CXCL10, IP10) secretion. CXCL10 was measured by Human CXCL10/IP-10 AlphaLISA Kit (PerkinElmer, #AL259 C/F) according to the manufacturer’s instructions.
# JAK1 = JAK1 (Homo sapiens, UniProt P23458); assay: Z'LYTE JAK kinase inhibition assay, JAK1; type: biochemical; details: read-out: JAK Catalytic Selectivity (IC50) JAK1
# Chain of JAK1 (P23458 whole entry): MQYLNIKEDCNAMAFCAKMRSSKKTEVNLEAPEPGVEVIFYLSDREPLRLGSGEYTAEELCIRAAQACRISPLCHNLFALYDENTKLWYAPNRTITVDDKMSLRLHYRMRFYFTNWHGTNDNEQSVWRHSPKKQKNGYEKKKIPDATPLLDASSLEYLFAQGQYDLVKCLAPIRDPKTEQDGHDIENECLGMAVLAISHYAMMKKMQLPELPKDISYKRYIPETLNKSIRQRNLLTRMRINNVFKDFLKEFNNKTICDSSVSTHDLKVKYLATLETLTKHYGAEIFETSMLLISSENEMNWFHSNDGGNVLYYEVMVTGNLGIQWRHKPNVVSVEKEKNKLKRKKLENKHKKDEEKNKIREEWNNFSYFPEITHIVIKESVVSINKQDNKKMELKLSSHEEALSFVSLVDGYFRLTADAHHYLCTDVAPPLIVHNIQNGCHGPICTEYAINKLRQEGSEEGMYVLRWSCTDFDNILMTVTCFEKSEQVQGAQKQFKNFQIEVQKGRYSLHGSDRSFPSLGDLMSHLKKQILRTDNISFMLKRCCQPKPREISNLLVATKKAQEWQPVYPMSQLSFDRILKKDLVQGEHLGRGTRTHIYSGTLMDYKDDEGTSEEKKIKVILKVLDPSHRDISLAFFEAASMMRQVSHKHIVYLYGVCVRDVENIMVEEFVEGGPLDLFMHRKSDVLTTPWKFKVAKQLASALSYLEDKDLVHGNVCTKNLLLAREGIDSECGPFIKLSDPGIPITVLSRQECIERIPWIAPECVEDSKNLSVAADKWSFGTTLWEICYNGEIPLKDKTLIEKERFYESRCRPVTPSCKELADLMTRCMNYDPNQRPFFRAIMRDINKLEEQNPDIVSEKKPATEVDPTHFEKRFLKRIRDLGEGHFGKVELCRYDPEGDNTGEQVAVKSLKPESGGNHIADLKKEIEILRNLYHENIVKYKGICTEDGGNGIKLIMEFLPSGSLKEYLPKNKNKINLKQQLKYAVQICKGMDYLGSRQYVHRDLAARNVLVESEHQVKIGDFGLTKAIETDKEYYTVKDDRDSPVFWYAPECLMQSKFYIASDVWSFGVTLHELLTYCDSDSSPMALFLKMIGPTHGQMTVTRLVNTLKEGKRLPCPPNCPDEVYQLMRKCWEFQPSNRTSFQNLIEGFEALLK
# [2] = test system: JAK2-dependent EPO-induced phosphorylation of STAT5 (Tyr694/699) in TF1 cells; assay: JAK cellular selectivity assay, EPO-pSTAT5 (JAK2); type: cell-based, human; details: Homo sapiens, TF-1; TF1 cells; read-out: JAK Cellular Selectivity (IC50) EPO-pSTAT5 (JAK2)
# Description: The cells were then ready for the assay after incubating for 2 hours in a humidified, 5% CO2 cell culture incubator at 37°C. […] The curve fit was generated, and statistical analysis was performed using GraphPad Prism. IC50 values were derived by non-linear regression analysis and defined as the compound concentration at which the response level was reduced to half of its maximum relative to a DMSO control.
# LM T1/2, H = type: in vitro ADME; details: human, liver microsomes
# LM T1/2, D = type: in vitro ADME; details: dog, liver microsomes
# LM T1/2, Mk = type: in vitro ADME; details: monkey, liver microsomes
# PPB, M = type: in vitro ADME; details: mouse, plasma
# CYP450 2C9 = CYP450 2C9 (Homo sapiens, UniProt P11712); assay: CYP450 inhibition, 2C9; type: in vitro ADME
# Chain of CYP450 2C9 (P11712 whole entry): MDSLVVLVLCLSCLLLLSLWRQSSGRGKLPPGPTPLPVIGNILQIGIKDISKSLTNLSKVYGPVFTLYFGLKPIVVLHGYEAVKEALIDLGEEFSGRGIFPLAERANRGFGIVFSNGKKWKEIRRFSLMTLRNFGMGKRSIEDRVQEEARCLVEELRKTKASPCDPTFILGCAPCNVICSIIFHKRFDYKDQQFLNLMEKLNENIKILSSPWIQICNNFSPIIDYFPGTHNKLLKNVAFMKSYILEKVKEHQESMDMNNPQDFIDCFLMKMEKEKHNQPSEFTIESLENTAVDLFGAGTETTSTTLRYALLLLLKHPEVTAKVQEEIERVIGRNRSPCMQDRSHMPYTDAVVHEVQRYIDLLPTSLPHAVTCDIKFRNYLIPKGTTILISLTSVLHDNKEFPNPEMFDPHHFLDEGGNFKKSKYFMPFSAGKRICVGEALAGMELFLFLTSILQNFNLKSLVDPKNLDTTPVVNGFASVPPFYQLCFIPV
# CYP450 2D6 = CYP450 2D6 (Homo sapiens, UniProt P10635); assay: CYP450 inhibition, 2D6; type: in vitro ADME
# Chain of CYP450 2D6 (P10635 whole entry): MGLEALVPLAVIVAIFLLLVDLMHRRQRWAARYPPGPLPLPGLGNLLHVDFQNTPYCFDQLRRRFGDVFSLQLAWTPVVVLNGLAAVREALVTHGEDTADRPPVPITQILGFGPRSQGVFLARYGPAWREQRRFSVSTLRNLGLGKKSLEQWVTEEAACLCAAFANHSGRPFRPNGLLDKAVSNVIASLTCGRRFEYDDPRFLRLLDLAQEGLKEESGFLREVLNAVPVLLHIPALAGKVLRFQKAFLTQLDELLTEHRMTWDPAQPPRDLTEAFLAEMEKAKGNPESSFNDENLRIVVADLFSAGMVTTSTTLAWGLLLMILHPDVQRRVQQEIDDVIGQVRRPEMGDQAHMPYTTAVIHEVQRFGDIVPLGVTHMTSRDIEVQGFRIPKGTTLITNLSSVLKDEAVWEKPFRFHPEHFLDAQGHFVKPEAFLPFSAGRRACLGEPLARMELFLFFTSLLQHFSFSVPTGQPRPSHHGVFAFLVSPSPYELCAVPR
# hERG = hERG (Homo sapiens, UniProt Q12809); assay: hERG IC50
# Chain of hERG (Q12809 whole entry): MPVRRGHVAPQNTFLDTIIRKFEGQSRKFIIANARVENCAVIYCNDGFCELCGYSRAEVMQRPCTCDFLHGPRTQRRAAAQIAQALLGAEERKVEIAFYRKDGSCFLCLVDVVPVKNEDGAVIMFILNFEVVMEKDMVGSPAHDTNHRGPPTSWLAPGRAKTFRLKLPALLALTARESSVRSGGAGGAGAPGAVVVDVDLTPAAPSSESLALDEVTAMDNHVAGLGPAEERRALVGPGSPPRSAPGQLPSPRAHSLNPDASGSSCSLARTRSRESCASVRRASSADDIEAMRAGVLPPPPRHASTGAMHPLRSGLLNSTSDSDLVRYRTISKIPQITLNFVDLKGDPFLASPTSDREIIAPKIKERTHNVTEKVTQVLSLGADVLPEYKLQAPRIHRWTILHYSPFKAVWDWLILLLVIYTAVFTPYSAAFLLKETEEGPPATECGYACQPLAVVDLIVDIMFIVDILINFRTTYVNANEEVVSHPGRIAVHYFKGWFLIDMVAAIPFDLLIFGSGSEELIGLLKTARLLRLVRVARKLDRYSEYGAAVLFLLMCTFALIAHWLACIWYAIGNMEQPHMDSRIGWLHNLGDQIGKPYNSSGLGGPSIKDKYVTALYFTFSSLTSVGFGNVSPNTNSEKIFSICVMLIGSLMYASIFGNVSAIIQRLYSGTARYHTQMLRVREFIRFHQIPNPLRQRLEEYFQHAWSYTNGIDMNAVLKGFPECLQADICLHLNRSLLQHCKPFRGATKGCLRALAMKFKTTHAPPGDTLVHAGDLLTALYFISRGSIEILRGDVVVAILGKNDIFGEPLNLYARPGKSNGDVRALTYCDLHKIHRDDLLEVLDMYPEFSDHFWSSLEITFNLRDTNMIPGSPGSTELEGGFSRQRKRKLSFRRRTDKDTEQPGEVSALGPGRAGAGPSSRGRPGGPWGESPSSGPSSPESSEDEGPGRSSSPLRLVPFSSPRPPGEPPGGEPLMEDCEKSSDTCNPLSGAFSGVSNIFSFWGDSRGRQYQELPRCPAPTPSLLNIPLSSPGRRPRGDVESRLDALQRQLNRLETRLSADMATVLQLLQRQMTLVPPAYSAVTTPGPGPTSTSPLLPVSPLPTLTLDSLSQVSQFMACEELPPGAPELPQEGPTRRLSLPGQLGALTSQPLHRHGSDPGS
SMILES,pIC50 [1],pIC50 (JAK1),pIC50 [2],"half-life (LM T1/2, H)","half-life (LM T1/2, D)","half-life (LM T1/2, Mk)","fraction unbound (PPB, M)",pIC50 (CYP450 2C9),pIC50 (CYP450 2D6),pIC50 (hERG)
CNC(=O)c1nnc(NC(=O)N2CCC2)cc1Nc1cccc(-c2ncn(C)n2)c1OC [SHR8751],6.34,< 5.00,< 5.00,> 139 min,> 139 min,> 99 min,0.35,< 4.52,< 4.52,< 4.52
CNC(=O)c1nnc(NC(=O)C2CC2)c2[nH]c(-c3ccc(N)cc3OC)cc12 [SHR2396],–,< 5.00,< 5.00,> 139 min,> 139 min,50 min,0.0292,< 4.52,< 4.52,–
[2H]C([2H])([2H])NC(=O)c1nnc(NC(=O)N2CCC2)cc1Nc1cccc(-c2ncn(C)n2)c1OC [SHR9332],6.32,< 5.00,< 5.00,47.5 min,46.5 min,30.9 min,0.249,< 4.52,< 4.52,< 4.52
